Measured values reported in ChEMBL document CHEMBL4673328, “Three bufadienolides induce cell death in the human lung cancer cell line CL1-5 mainly through autophagy” (Bioorg Med Chem Lett, 2021).
“And” between values parts separate entries of the source, which are not always exact repeats. Equal values may be shown once. The source made the active and inactive calls. No cut-off for these calls is given here.

How the values were obtained:
[1] = Induction of apoptosis in human CL1-5 cells assessed as early apoptotic cells at 100 nM incubated for 24 hrs by AnnexinV/FITC and propidium iodide staining based flow cytometry analysis (reference value: 2.65%); format: functional
[2] = Induction of autophagy in human CL1-5 cells assessed as fold increase in Beclin 1 expression level at 100 nM incubated for 24 hrs by Western blot analysis relative to control; format: functional
[3] = Induction of autophagy in human CL1-5 cells assessed as fold increase in Atg7 expression level at 100 nM incubated for 24 hrs by Western blot analysis relative to control; format: functional
[4] = Induction of autophagy in human CL1-5 cells assessed as fold increase in Atg5 expression level at 100 nM incubated for 24 hrs by Western blot analysis relative to control; format: functional
[5] = Induction of autophagy in human CL1-5 cells assessed as fold increase in mTOR expression level at 100 nM incubated for 24 hrs by Western blot analysis relative to control; format: functional
[6] = Induction of autophagy in human CL1-5 cells assessed as fold change in LC3-I expression level at 100 nM incubated for 24 hrs by Western blot analysis relative to control; format: functional
[7] = Induction of autophagy in human CL1-5 cells assessed as fold increase in LC3-II expression level at 100 nM incubated for 24 hrs by Western blot analysis relative to control; format: functional
[8] = Induction of autophagy in human CL1-5 cells assessed as fold decrease in phosphorylated mTOR expression level at 100 nM incubated for 24 hrs by Western blot analysis relative to control; format: functional
[9] = Induction of autophagy in human CL1-5 cells assessed as proportion of cells with degradative autophagic compartment at 100 nM incubated for 24 hrs by acridine orange staining based flow cytometry analysis (reference value: 0.34%); format: functional
CL1-5 [10] = assay: Induction of autophagy in human CL1-5 cells assessed as LC3-GFP punta formation at 100 nM incubated for 24 hrs by confocal microscopic analysis; format: functional, cell-based
[11] = Induction of apoptosis in human CL1-5 cells assessed as necrotic cells at 100 nM incubated for 24 hrs by AnnexinV/FITC and propidium iodide staining based flow cytometry analysis (reference value: 0.285%); format: functional
[12] = Induction of cell cycle arrest in human CL1-5 cells assessed as subG1 phase at 100 nM incubated for 24 hrs by propidium iodide staining based flow cytometry analysis (reference value: 2.28%); format: functional
[13] = Induction of cell cycle arrest in human CL1-5 cells assessed as G0/G1 phase at 100 nM incubated for 24 hrs by propidium iodide staining based flow cytometry analysis (reference value: 62.2%); format: functional
[14] = Induction of cell cycle arrest in human CL1-5 cells assessed as S phase at 100 nM incubated for 24 hrs by propidium iodide staining based flow cytometry analysis (reference value: 16.85%); format: functional
[15] = Induction of cell cycle arrest in human CL1-5 cells assessed as G2/M phase at 100 nM incubated for 24 hrs by propidium iodide staining based flow cytometry analysis (reference value: 18.04%); format: functional
[16] = Induction of apoptosis in human CL1-5 cells assessed as late apoptotic cells at 100 nM incubated for 24 hrs by AnnexinV/FITC and propidium iodide staining based flow cytometry analysis (reference value: 2.30%); format: functional
[17] = Induction of autophagy in human CL1-5 cells assessed as fold change in p62 expression level at 100 nM incubated for 24 hrs in presence of early-stage autophagy inhibitor, 3-MA by Western blot analysis relative to control; format: functional
[18] = Induction of autophagy in human CL1-5 cells assessed as fold decrease in p62 expression level at 100 nM incubated for 24 hrs by Western blot analysis relative to control; format: functional
[19] = Induction of apoptosis in human CL1-5 cells assessed as viable cells at 100 nM incubated for 24 hrs by AnnexinV/FITC and propidium iodide staining based flow cytometry analysis (reference value: 94.8 %); format: functional; conditions: read-out: Activity
[20] = Cytotoxicity against human CL1-5 cells assessed as reduction in cell viability incubated for 24 hrs by MTT assay; format: functional, cell-based; conditions: CL1-5, 24 h
[21] = Induction of autophagy in human CL1-5 cells assessed as fold decrease in p62 expression level at 50 nM incubated for 24 hrs by Western blot analysis relative to control; format: functional
[22] = Induction of autophagy in human CL1-5 cells assessed as fold increase in Atg7 expression level at 50 nM incubated for 24 hrs by Western blot analysis relative to control; format: functional
[23] = Induction of autophagy in human CL1-5 cells assessed as fold increase in Atg5 expression level at 50 nM incubated for 24 hrs by Western blot analysis relative to control; format: functional
[24] = Induction of autophagy in human CL1-5 cells assessed as fold increase in LC3-II expression level at 50 nM incubated for 24 hrs by Western blot analysis relative to control; format: functional
[25] = Induction of autophagy in human CL1-5 cells assessed as fold increase in Beclin 1 expression level at 50 nM incubated for 24 hrs by Western blot analysis relative to control; format: functional
[26] = Induction of autophagy in human CL1-5 cells assessed as fold increase in mTOR expression level at 50 nM incubated for 24 hrs by Western blot analysis relative to control; format: functional
[27] = Induction of autophagy in human CL1-5 cells assessed as fold change in LC3-I expression level at 50 nM incubated for 24 hrs by Western blot analysis relative to control; format: functional
[28] = Induction of autophagy in human CL1-5 cells assessed as fold decrease in phosphorylated mTOR expression level at 50 nM incubated for 24 hrs by Western blot analysis relative to control; format: functional
CL1-5 [29] = assay: Induction of autophagy in human CL1-5 cells assessed as LC3-GFP punta formation at 50 nM incubated for 24 hrs by confocal microscopic analysis; format: functional, cell-based

| Structure (SMILES) | Activity [1] [%] | fold change (FC) [2] | fold change (FC) [3] | fold change (FC) [4] | fold change (FC) [5] | fold change (FC) [6] | fold change (FC) [7] | fold change (FC) [8] | Activity [9] [%] | Activity (CL1-5 [10]) | Activity [11] [%] | Activity [12] [%] | Activity [13] [%] | Activity [14] [%] | Activity [15] [%] | Activity [16] [%] | fold change (FC) [17] | fold change (FC) [18] | viability at 0.1 µM [19] [%] | IC50 [20] | other results |
| --- | --- | --- | --- | --- | --- | --- | --- | --- | --- | --- | --- | --- | --- | --- | --- | --- | --- | --- | --- | --- | --- |
| CC(=O)O[C@H]1C[C@H](C)O[C@@H](O[C@H]2CC[C@]3(C=O)[C@H]4[C@H](O)C(=O)[C@]5(C)[C@@H](c6ccc(=O)oc6)CC[C@]5(O)[C@@H]4CC[C@]3(O)C2)[C@H]1O | 3.53 | 10.47 | 1.18 | 1.51 | 1.28 | 0.69 | 1.84 | 0.31 | 12.29 | Active | 0.658 | 1.81 | 60.1 | 13.21 | 23.65 | 4.93 | 1.19 | 0.42 | 90.9 | 0.0706 µg/mL and 114 nM | – |
| C[C@@]12O[C@H]3C[C@@H](O1)[C@]1(C=O)[C@H]4[C@H](O)C(=O)[C@]5(C)[C@@H](c6ccc(=O)oc6)CC[C@]5(O)[C@@H]4CC[C@@]1(C3)O2 | 4.19 | 3.2 | 1.18 | 2.01 | 1.23 | 1.03 | 2.36 | 0.58 | 11.35 | inactive | 1.3 | 2.25 | 60.71 | 13.2 | 23.26 | 5.88 | 1.02 | 0.59 | 88.6 | 0.0767 µg/mL and 162 nM | – |
| CC(=O)O[C@H]1C(=O)[C@@]2(C)[C@H]([C@H](OC(=O)c3ccccc3)[C@]3(O)C[C@H](OC(=O)[C@H](O)[C@@H](NC(=O)c4ccccc4)c4ccccc4)C(C)=C1C3(C)C)[C@]1(OC(C)=O)CO[C@@H]1C[C@@H]2O [PACLITAXEL] | 18.6 | – | – | – | – | – | – | – | – | – | 2.31 | – | – | – | – | – | – | – | 72 | – | – |
| CO[C@H]1C[C@@H]2CC[C@@H](C)[C@@](O)(O2)C(=O)C(=O)N2CCCC[C@H]2C(=O)O[C@H]([C@H](C)C[C@@H]2CC[C@@H](O)[C@H](OC)C2)CC(=O)[C@H](C)/C=C(\C)[C@@H](O)[C@@H](OC)C(=O)[C@H](C)C[C@H](C)/C=C/C=C/C=C/1C [SIROLIMUS] | – | – | – | – | – | – | – | – | – | – | – | – | – | – | – | – | – | – | – | – | fold change (FC) [21]: 0.79; fold change (FC) [22]: 1.26; fold change (FC) [23]: 2.17; fold change (FC) [24]: 1.3; fold change (FC) [25]: 16.57; fold change (FC) [26]: 1.14; fold change (FC) [27]: 1.69; fold change (FC) [28]: 0.26; Activity (CL1-5 [29]): Active |
| C[C@H]1C[C@H](O)[C@H](O)[C@H](O[C@H]2CC[C@]3(C=O)[C@H]4[C@H](O)C(=O)[C@]5(C)[C@@H](c6ccc(=O)oc6)CC[C@]5(O)[C@@H]4CC[C@]3(O)C2)O1 | 4.72 | 12.86 | 1.76 | 2.77 | 1.1 | 0.93 | 2.55 | 0.08 | 14.45 | Active | 0.91 | 2.14 | 43.83 | 24.94 | 28.04 | 5.52 | 0.56 | 0.4 | 88.8 | 0.0523 µg/mL and 90.8 nM | – |
